Data reported in patent publication US11226337B2, “Chemoproteomic profiling of protein electrophilic and oxidative post-translational modifications” (Zenagem, LLC, priority 2017, dated 2022).

Experiments:
[1] = target: T1, CTSB Cathepsin B (P07858) (Homo sapiens, UniProt P07858); assay: SILAC RP-ABPP; type: cell-based; conditions: SILAC H/L, MDA-MB-231
T1 construct: In Situ Labelling of Cells with Hydrazine Probes for MS Experiments; endogenous in cells; host or cells: HEK293T and MDA-MB-231

[2] = target: T2, FASTICD5 FAST kinase domain containing (Q7L8L6) (Homo sapiens, UniProt Q7L8L6); assay: SILAC RP-ABPP; type: cell-based; conditions: SILAC H/L, HEK293T
T2 construct: shared by both the endogenous and recombinant forms of these proteins; endogenous in cells; host or cells: HEK293T and MDA-MB-231
T2 sequence (Q7L8L6 28-764): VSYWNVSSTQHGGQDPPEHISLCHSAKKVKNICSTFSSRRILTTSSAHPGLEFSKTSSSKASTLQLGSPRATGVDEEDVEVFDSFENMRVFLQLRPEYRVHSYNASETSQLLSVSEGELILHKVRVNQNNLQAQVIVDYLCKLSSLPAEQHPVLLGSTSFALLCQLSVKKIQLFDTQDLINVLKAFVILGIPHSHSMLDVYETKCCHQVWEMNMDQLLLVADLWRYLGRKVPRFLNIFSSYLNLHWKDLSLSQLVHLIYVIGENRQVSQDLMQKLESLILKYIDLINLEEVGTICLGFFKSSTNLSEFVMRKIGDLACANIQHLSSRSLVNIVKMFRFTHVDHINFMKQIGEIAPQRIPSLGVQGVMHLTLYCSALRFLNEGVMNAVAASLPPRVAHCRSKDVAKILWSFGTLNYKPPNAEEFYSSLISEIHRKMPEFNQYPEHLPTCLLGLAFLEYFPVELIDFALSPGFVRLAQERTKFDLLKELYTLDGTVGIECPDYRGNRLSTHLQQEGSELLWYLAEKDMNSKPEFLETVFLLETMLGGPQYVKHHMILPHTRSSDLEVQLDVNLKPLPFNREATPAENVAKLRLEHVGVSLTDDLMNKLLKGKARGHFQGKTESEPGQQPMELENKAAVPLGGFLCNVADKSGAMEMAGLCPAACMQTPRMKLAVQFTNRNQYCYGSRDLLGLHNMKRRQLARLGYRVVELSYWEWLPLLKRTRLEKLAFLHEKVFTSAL

Structure (SMILES)	enrichment ratioavg ([1]; probe 1 3 mM 0.5 h vs probe 3)	competition ratioavg ([1]; probe 1 vs probe 1+10x probe 3)	enrichment ratioavg ([2]; probe 1 3 mM 0.5 h vs probe 3)	competition ratioavg ([2]; probe 1 vs probe 1+10x probe 3)	enrichment ratioavg ([1]; probe 2 1 mM 0.5 h vs probe 4)	competition ratioavg ([1]; probe 2 vs probe 2+10x probe 4)	enrichment ratioavg ([2]; probe 2 1 mM 0.5 h vs probe 4)	competition ratioavg ([2]; probe 2 vs probe 2+10x probe 4)
C#CCNN.Cl [probe 1, prop-2-yn-1-ylhydrazine hydrochloride]	9	3	18	3				
C#CCCNC(=O)c1ccc(NN)cc1.Cl [probe 2, N-(but-3-yn-1-yl)-4-hydrazinylbenzamide hydrochloride]					14	5	10	3
